Results published in patent US5391800A, “Method for inhibition of cell motility by sphingosine-1-phosphate, its derivatives and mimetics and method of synthesizing sphingosine-1-phosphate and its derivatives” (The Biomembrane Institute, priority 1993, dated 1995).

How the values were obtained:
[1] = Toxicity to human neutrophils, trypan blue exclusion; format: cell-based; details: human, neutrophils; neutrophil; 45 μM; 1 hour incubation; control 99; read-out: Cell viability (%)
Description: (§1) Effects of SPN derivatives on protein kinase C activity and cell growth of B16/F1 cells was also investigated. […] Toxicity of these compounds to B16/F1 cells and human neutrophils was also examined using a trypan blue exclusion assay after 1 hour incubation with the compounds.

human neutrophils [2] = experiment: as above; format: cell-based; details: 45-50 μM; human neutrophils; 1 hour
Description: as §1

B16/F1 melanoma cells = experiment: Chemoinvasion of B16/F1 cells through thick MATRI-GEL layer on transwell filter; format: cell-based, mouse; details: for Effect on invasion compared with SPN-1-P: FIG. 10; for % invasion: percent relative to control, mean ± S.E., n = 3 or 4, concentration not given, 4200 min
Description: The assays for determining chemotactic cell motility and chemoinvasion can be performed using transwell plates with a polycarbonate membrane filter (pore size 8 μm) (Costar Scientific, Cambridge, Mass.). Aliguots, e.g., 50 μl, of an aqueous solution of MATRI-GEL (Collaborative Research, Bedford, Mass.) containing SPN-1-P or other inhibitor (e.g., 20 μg/ml for chemotactic motility assay or 200 μg/ml for chemoinvasion assay), is added to each well and dried overnight. The filter is then fitted onto the lower chamber plate. The lower chamber can contain conditioned medium (CM) (i.e., medium used for splenic stromal cell culture, and containing motility factor secreted by these cells), e.g., 0.6 ml, with or without SPN-1-P or other inhibitor. To the upper chamber is added, e.g., about 100 μl, of cell suspension (5×10^4 cells/ml for invasion assay, 5×10^5 cells/ml for motility assay), which is then incubated in 5% CO2 at 37° C. for 70-72 hours (invasion assay) or 20 hours (motility assay). After incubation, cells remaining in the upper chamber are wiped off with a cotton swab, and cells which had migrated to the lower chamber side of the filter are fixed in methanol for 30 seconds and stained with 0.05% toluidine blue. The filter is removed, the stain is solubilized in 10% acetic acid (e.g., 0.1 ml for invasion assay, 0.5 ml for motility assay), and color intensity (optical density) is quantitated by ELISA reading at 630 nm. Using SPN-1-P, a linear relationship was observed between cell number and toluidine blue optical density (FIG. 7).
Assays were performed using transwell plates with polycarbonate membrane filters (pore size 8 μm) (Costar Scientific, Cambridge, Mass.). 50 μl aliguots of an aqueous solution of MATRI-GEL (Collaborative Research, Bedford, Mass.) containing 20 μg/ml (for chemotactic motility assay) or 200 μg/ml (for chemoinvasion assay) were added to each well and dried overnight. The filter was fitted onto the lower chamber plate. The lower chamber contained 0.6 ml conditioned medium (CM) (i.e., medium used for splenic stromal cell culture, and containing motility factor secreted by these cells) with or without the suspected inhibitor. To the upper chamber was added 100 μl of cell suspension (5×10^4 cells/ml for invasion assay, 5×10^5 cells/ml for motility assay), which was then incubated in 5% CO2 at 37° C. for 70-72 hours (invasion assay) or 20 hours (motility assay). After incubation, cells remaining in the upper chamber were wiped off with a cotton swab, and cells which had migrated to the lower chamber side of the filter were fixed in methanol for 30 seconds and stained with 0.05% toluidine blue. The filter was removed, the stain was solubilized in 10% acetic acid (0.1 ml for invasion assay, 0.5 ml for motility assay), and color intensity (optical density) was quantitated by ELISA reading at 630 nm. A linear relationship was observed between cell number and toluidine blue optical density (FIG. 7.).
Chemoinvasion was measured by the ability of tumor cells in CM (as described above) to migrate through a thick layer of MATRI-GEL during a prolonged incubation period (70 hours). This property is distinct from chemotactic cell motility, which involves a much shorter incubation period (20 hours) and a thin layer of MATRI-GEL. For the chemoinvasion assay, 10 μg of MATRI-GEL was applied to a polycarbonate transwell filter and migration was observed following 70 hours incubation (based on results shown in FIG. 8).

human neutrophils [3] = experiment: Phagokinetic activity of human neutrophils on gold sol-coated plates; format: cell-based; details: for Cleared area: 2 hours, mean ± S.D., control 6.3 ± 2.3; for Reduction in phagokinetic activity of human neutrophils: Table VII, in words
Description: Phagokinetic activity is measured by the ability of cells to ingest foreign particles while moving. Cell motility can be estimated as the area of a phagokinetic track on gold sol particle-coated plates as previously described {Albrecht-Buehler, Cell, 11:395 (1977)}. A uniform coating of gold particles is prepared on glass coverslips precoated with bovine serum albumin, and coverslips are rinsed repeatedly to remove non-adhering or loosely-adhering gold particles. Freshly-prepared neutrophils or tumor cells detached from culture are placed in a Petri dish containing the gold sol-coated plate, and incubated for about 2 hours (for human neutrophils) or about 18 hours (for tumor cells). The coverslips are fixed for 1 hour in a 4% formaldehyde solution in phosphate-buffered saline (PBS) and mounted on microscope slides. The phagokinetic tracks are observed on a television connected to a light microscope (Nikon, Tokyo, Japan). Tracks on the television are transferred to translucent sheets, which are then photocopied. Phagokinetic activity is quantitated by cutting and weighing the swept area in the copy.
Cell motility was estimated as the area of phagokinetic track on gold sol particle-coated plates as previously described {Albrecht-Buehler, Cell, 11:395 (1977)}. A uniform coating of gold particles was prepared on glass coverslips precoated with bovine serum albumin, and the coverslips were rinsed repeatedly to remove non-adhering or loosely-adhering gold particles. Freshly-prepared neutrophils or tumor cells detached from culture were placed in a Petri dish containing the gold sol-coated plate, and incubated for 2 hours (for human neutrophils) or 18 hours (for tumor cells). The coverslips were fixed for 1 hour in 4% formaldehyde solution in phosphate-buffered saline (PBS) and mounted on microscope slides. The phagokinetic tracks were observed on a television connected to a light microscope (Nikon, Tokyo, Japan). Tracks on the television were transferred to translucent sheets, which were then photocopied. Phagokinetic activity was quantitated by cutting and weighing the swept area in the copy.
**mean ± S.D. Freshlyprepared neutrophils (1 × 10^4
cell/plate) were seeded on a coverslip precoated with gold sol particles
in the presence or absence of test compound. 2 hours later, incubation wa
terminated by adding 200 μl of 10% formaldehyde and the cleared area
was estimated as described in the text.

| Structure (SMILES) | viability at 1 h, 45 µM [1] [%] | Toxicity (human neutrophils [2]) | Effect on invasion compared with SPN-1-P (B16/F1 melanoma cells; 70 hours) | % invasion (B16/F1 melanoma cells) [%] | Cleared area (human neutrophils [3]; 0.45 μM) | Inhibition of invasion (B16/F1 melanoma cells; 10^-8 or 10^-7 M, 70 hours) | Inhibition of chemoinvasion compared with other sphingolipids (B16/F1 melanoma cells; comparison with other sphingolipids) | Cleared area (human neutrophils [3]; 1.0 μM) | Cleared area (human neutrophils [3]; 4.5 μM) | Reduction in phagokinetic activity of human neutrophils (human neutrophils [3]) |
| --- | --- | --- | --- | --- | --- | --- | --- | --- | --- | --- |
| CCCCCCCCCCCCC/C=C/[C@@H](O)[C@@H](N)CO [SPN, sphingosine] | 5 | very toxic | weaker effect | 16 ± 7 | 5.2 ± 2.0 × 10^3 μm^2 |  |  |  |  |  |
| CCCCCCCCCCCCC/C=C/[C@@H](O)[C@@H](N)COP(=O)(O)O [SPN-1-P, sphingosine-1-phosphate] | 98 | weak toxicity |  |  | 5.5 ± 2.7 × 10^3 μm^2 | strongly inhibited | unexpectedly superior inhibition | 5.4 ± 2.4 × 10^3 μm^2 | 3.5 ± 1.4 × 10^3 μm^2 | most striking |
| CCCCCCCCCCCCC/C=C/[C@@H](O)[C@H](CO)[N+](C)(C)C [TMS, N,N,N-trimethylsphingosine] |  |  | weaker effect | 75 ± 8 | 5.4 ± 2.7 × 10^3 μm^2 |  |  | 3.6 ± 1.5 × 10^3 μm^2 |  | most striking |
